Experimental data as given in patent US20070128217A1 (priority 2003, published 2007).

Legend:
[1] = tested on: antibodies in sera from SARS patients (sera 1a, 1b, 2, 6, 37, 62, London, SARS-yellow, SARS-green); assay type: binding, human; design: Binding of serum 6 to linear peptides of protein X1 of SARS-CoV Urbani / Binding of serum 37 to linear peptides of protein X1 of SARS-CoV Urbani / Binding of serum 6 to looped/cyclic peptide (PEPSCAN-ELISA) / Binding of serum 37 to looped/cyclic peptide (PEPSCAN-ELISA) / Binding of serum 37 to looped/cyclic peptides of protein X1 of SARS-CoV Urbani / Binding of serum 6 to linear peptides of protein X2 / Binding of serum 37 to linear peptides of protein X2 / Binding of serum 37 to looped/cyclic peptides of protein X2 of SARS-CoV Urbani / Binding of serum 6 to linear peptides of protein M of SARS-CoV Urbani / Binding of serum 37 to linear peptides of protein M of SARS-CoV Urbani / Binding of serum 6 to looped/cyclic peptides of protein M of SARS-CoV Urbani / Binding of serum 37 to looped/cyclic peptides of protein M of SARS-CoV Urbani / Binding of serum 6 to linear peptides of protein X3 of SARS-CoV Urbani / Binding of serum 37 to linear peptides of protein X3 of SARS-CoV Urbani / Binding of serum 37 to looped/cyclic peptides of protein X3 of SARS-CoV Urbani / Binding of serum 6 to linear peptides of protein X4 of SARS-CoV Urbani / Binding of serum 37 to linear peptides of protein X4 of SARS-CoV Urbani / Binding of serum 37 to looped/cyclic peptides of protein X4 of SARS-CoV Urbani / Binding of serum 6 to linear peptides of protein X5 of SARS-CoV Urbani / Binding of serum 37 to linear peptides of protein X5 of SARS-CoV Urbani / Binding of serum 37 to looped/cyclic peptides of protein X5 of SARS-CoV Urbani / Binding of serum 6 to linear peptides of protein N of SARS-CoV Urbani / Binding of serum 37 to linear peptides of protein N of SARS-CoV Urbani / Binding of serum 6 to linear peptide (PEPSCAN-ELISA) / Binding of serum 1a to looped/cyclic peptides of protein N of SARS-CoV Urbani / Binding of serum 1b to looped/cyclic peptides of protein N of SARS-CoV Urbani / Binding of serum 2 to looped/cyclic peptides of protein N of SARS-CoV Urbani / Binding of serum 6 to looped/cyclic peptides of protein N of SARS-CoV Urbani / Binding of serum 37 to looped/cyclic peptides of protein N of SARS-CoV Urbani / Binding of serum 62 to looped/cyclic peptides of protein N of SARS-CoV Urbani / Binding of serum London to looped/cyclic peptides of protein N of SARS-CoV Urbani / Binding of serum SARS-green to looped/cyclic peptides of protein N of SARS-CoV Urbani: unit not given here
[2] = tested on: control sera (pooled serum of ten healthy LUMC hospital workers; commercial negative donor pooled serum from the Dutch bloodbank); assay type: binding, human; design: Binding of Control serum LUMC to linear peptides / Binding of Control serum Blood-bank to linear peptides / Binding of Control serum LUMC to looped peptides / Binding of Control Serum Blood-Bank to Looped peptides / Binding of Control serum LUMC to linear peptides of the protein M of SARS-CoV Urbani / Binding of Control serum Blood-bank to linear peptides of the protein M of SARS-CoV Urbani / Binding of Control serum LUMC to looped peptides of the protein M of SARS-CoV Urbani / Binding of Control Serum Blood-Bank to Looped peptides of the protein M of SARS-CoV Urbani: unit not given here
[3] = tested on: recombinant human anti-SARS-CoV antibody 03-018; assay type: binding; design: Binding of antibody 03-018 to linear peptides of the N protein of SARS-CoV Urbani / Binding of antibody 03-018 to looped/cyclic peptides of the N protein of SARS-CoV Urbani: unit not given here
[4] = tested on: rabbit serum obtained by immunizing a rabbit with the SARS-CoV strain Frankfurt 1; assay type: binding; design: Binding of a rabbit serum to linear peptides / Binding of a rabbit serum to looped peptides / Rabbit serum linear peptides / Rabbit serum looped peptides / Binding of a rabbit serum to linear peptides of protein N of SARS-CoV Urbani (Rabbit serum linear peptides) / Binding of a rabbit serum to looped/cyclic peptides of protein N of SARS-CoV Urbani (Rabbit serum looped peptides): unit not given here

Sequence	Binding of serum 1a to linear peptides of protein N of SARS-CoV Urbani [1]	Binding of serum 1a to looped/cyclic peptides of protein N of SARS-CoV Urbani [1]	Binding of serum 1b to linear peptides of protein N of SARS-CoV Urbani [1]	Binding of serum 1b to looped/cyclic peptides of protein N of SARS-CoV Urbani [1]	Binding of serum 2 to linear peptides of protein N of SARS-CoV Urbani [1]	Binding of serum 2 to looped/cyclic peptides of protein N of SARS-CoV Urbani [1]	Binding of serum 6 to looped/cyclic peptides of protein N of SARS-CoV Urbani [1]	Binding of serum 37 to looped/cyclic peptides of protein N of SARS-CoV Urbani [1]	Binding of serum 62 to looped/cyclic peptides of protein N of SARS-CoV Urbani [1]	Binding of serum London to looped/cyclic peptides of protein N of SARS-CoV Urbani [1]	Binding of serum SARS-green to looped/cyclic peptides of protein N of SARS-CoV Urbani [1]	Binding of serum SARS-yellow to looped/cyclic peptides of protein N of SARS-CoV Urbani [1]	Binding of antibody 03-018 to linear peptides of the N protein of SARS-CoV Urbani [3]	Binding of antibody 03-018 to looped/cyclic peptides of the N protein of SARS-CoV Urbani [3]	Binding of a rabbit serum to linear peptides of protein N of SARS-CoV Urbani (Rabbit serum linear peptides) [4]	Binding of a rabbit serum to looped/cyclic peptides of protein N of SARS-CoV Urbani (Rabbit serum looped peptides) [4]	Binding of Control Serum Blood-Bank to Looped peptides [2]	Binding of Control serum Blood-bank to linear peptides [2]	Binding of Control serum LUMC to linear peptides [2]	Binding of Control serum LUMC to looped peptides [2]	further results
VILLNKHIDAYKTFP	0.2	0.3	0.1	0.1	0.2	0.3	0.2	0.5	0.4	0.4	0.2	0.3	0.1	0.2	0.1	0.4					Binding of serum 6 to linear peptides of protein N of SARS-CoV Urbani [1]: 0.2; Binding of serum 37 to linear peptides of protein N of SARS-CoV Urbani [1]: 0.7; Binding of serum 62 to linear peptides of protein N of SARS-CoV Urbani [1]: 0.7; Binding of serum London to linear peptides of protein N of SARS-CoV Urbani [1]: 0.5; Binding of serum SARS-green to linear peptides of protein N of SARS-CoV Urbani [1]: 0.4; Binding of serum SARS-yellow to linear peptides of protein N of SARS-CoV Urbani [1]: 0.5; Control Serum Blood-Bank Looped peptides [2]: 0.5; Control serum Blood-bank linear peptides [2]: 0.7; Control serum LUMC linear peptides [2]: 0.8; Control serum LUMC looped peptides [2]: 0.4
PYGANKEGIVWVATE	0.3	0.4	0.2	0.3	0.2	0.5	0.3	0.9	0.9	0.5	0.8	0.7	0.1	0.2	0.2	0.2	0.6	0.7	0.7	0.7	Binding of serum 6 to linear peptides of protein N of SARS-CoV Urbani [1]: 0.2; Binding of serum 37 to linear peptides of protein N of SARS-CoV Urbani [1]: 1.0; Binding of serum 62 to linear peptides of protein N of SARS-CoV Urbani [1]: 0.8; Binding of serum London to linear peptides of protein N of SARS-CoV Urbani [1]: 0.7; Binding of serum SARS-green to linear peptides of protein N of SARS-CoV Urbani [1]: 0.8; Binding of serum SARS-yellow to linear peptides of protein N of SARS-CoV Urbani [1]: 0.6
GKGQQQQGQTVTKKS		1.4		0.6		0.7	0.4	0.5	0.6	0.4	0.6	0.5	0.1	0.2	0.2	0.4	0.6	0.9	1.0	0.7	Binding of serum 1a to linear peptide (PEPSCAN-ELISA) [1]: 0.3; Binding of serum 1b to linear peptide (PEPSCAN-ELISA) [1]: 0.1; Binding of serum 2 to linear peptide (PEPSCAN-ELISA) [1]: 0.3; Binding of serum 6 to linear peptide (PEPSCAN-ELISA) [1]: 0.3; Binding of serum 37 to linear peptide (PEPSCAN-ELISA) [1]: 0.7; Binding of serum 62 to linear peptide (PEPSCAN-ELISA) [1]: 0.7; Binding of serum London to linear peptide (PEPSCAN-ELISA) [1]: 0.5; Binding of serum SARS-green to linear peptide (PEPSCAN-ELISA) [1]: 0.2; Binding of serum SARS-yellow to linear peptide (PEPSCAN-ELISA) [1]: 0.7
RGNSPARMASGGGET		0.4		0.3		0.4	0.3	0.4	0.4	0.8	0.1	0.1	0.1	0.2	0.1	0.2	0.6	0.8	0.7	0.5	Binding of serum 1a to linear peptide (PEPSCAN-ELISA) [1]: 0.3; Binding of serum 1b to linear peptide (PEPSCAN-ELISA) [1]: 0.1; Binding of serum 2 to linear peptide (PEPSCAN-ELISA) [1]: 0.2; Binding of serum 6 to linear peptide (PEPSCAN-ELISA) [1]: 0.2; Binding of serum 37 to linear peptide (PEPSCAN-ELISA) [1]: 0.5; Binding of serum 62 to linear peptide (PEPSCAN-ELISA) [1]: 0.5; Binding of serum London to linear peptide (PEPSCAN-ELISA) [1]: 0.5; Binding of serum SARS-green to linear peptide (PEPSCAN-ELISA) [1]: 0.1; Binding of serum SARS-yellow to linear peptide (PEPSCAN-ELISA) [1]: 0.5
